{"source": "patent US9057727B2", "about": "“Screening methods using G-protein coupled receptors and related compositions” (The General Hospital Corporation, priority 2007, dated 2015)", "key": {"[1]": {"biological_target": "T1, human PTHR, G protein-coupled conformation (RG) (Homo sapiens, UniProt Q03431)", "T1 construct": "expressed in transfected cells; host or cells: COS-7, transient (Fugene-6); membranes", "T1 sequence (Q03431 27-593)": "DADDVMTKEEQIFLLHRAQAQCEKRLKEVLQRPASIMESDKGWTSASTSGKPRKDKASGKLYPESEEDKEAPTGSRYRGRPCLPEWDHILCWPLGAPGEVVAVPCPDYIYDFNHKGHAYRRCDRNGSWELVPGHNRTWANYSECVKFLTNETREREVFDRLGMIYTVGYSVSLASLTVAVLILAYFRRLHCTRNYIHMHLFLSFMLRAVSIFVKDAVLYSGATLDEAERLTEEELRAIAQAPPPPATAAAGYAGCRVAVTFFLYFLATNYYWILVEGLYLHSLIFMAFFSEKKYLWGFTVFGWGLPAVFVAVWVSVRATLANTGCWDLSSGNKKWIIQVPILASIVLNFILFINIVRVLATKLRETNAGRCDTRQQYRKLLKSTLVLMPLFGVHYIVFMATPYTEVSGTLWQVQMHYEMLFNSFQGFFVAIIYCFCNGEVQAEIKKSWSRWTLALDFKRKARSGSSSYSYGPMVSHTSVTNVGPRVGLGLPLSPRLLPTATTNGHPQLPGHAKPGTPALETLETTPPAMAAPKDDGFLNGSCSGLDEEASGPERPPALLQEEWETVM", "test": "Competition binding to RG conformation of hPTHR (COS-7 membranes, GαsND, 125I-[Aib1,3,M]PTH(1-15) tracer)", "details": "Table 2; read-out: RG binding affinity hPTHR IC50"}, "[2]": {"test": "Plasma cAMP in C57BL/6 mice after intravenous injection", "format": "in vivo", "details": "i.v. (Example 4)", "quoted_text": "Blood was withdrawn 10 minutes after injection, and the plasma level of cAMP was measured by RIA.\nBlood was withdrawn 10 minutes after injection and plasma level of cAMP was measured by RIA.\nIn the cAMP experiment (FIG. 29A), blood was withdrawn 10 minutes after injection and plasma level of cAMP was measured by RIA."}, "[3]": {"test_system": "SaOS cells", "test": "cAMP production in SaOS cells, dose-response", "format": "cell-based"}, "[4]": {"test_system": "MC3T3-E1 cells", "test": "cAMP in MC3T3-E1 cells, dose-response", "format": "cell-based", "details": "Table 2; read-out: MC3T3-E1 cAMP EC50", "protocol": "In the 1-30 scaffold, Gly, Ser, Leu, Asn, Gln, Trp, Glu, and Lys were substituted at position 29; Gly, Ser, Leu, Asn, Asp, Trp, and Lys were substituted at position 30; and Ser, Leu, Asn, Val, Trp, Glu, and Lys were substituted at position 31. […] These peptides were tested for cAMP activity in MC3T3-E1 cells."}, "[5]": {"biological_target": "T2, human PTHR, G protein-uncoupled conformation (R^0) (Homo sapiens, UniProt Q03431)", "T2 construct": "expressed in transfected cells; host or cells: COS-7, transient (Fugene-6)", "T2 sequence (Q03431 27-593)": "T1 sequence (Q03431 27-593)", "test": "Competition binding to R0 conformation of hPTHR (COS-7 membranes, GTPγS, 125I-PTH(1-34) tracer)", "details": "Table 2", "outline": "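Bound versus free radioligand was separated by vacuum filtration after 90 min incubation of COS-7 hPTHR membranes (20-100 μg/mL) with tracer and competing peptides. Non-specific binding came from a saturating unlabeled analog.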"}, "[6]": {"test_system": "LLCPK1-B64 cells or SaOS-2 cells", "test": "cAMP screen of substituted PTHrP(1-28) analogs (% parent)", "format": "cell-based", "details": "parent PTHrP(1-28)NH", "outline": "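LLCPK1-B64 or SaOS-2 cells exposed to peptide analogs at 3×10^−9M with IBMX for 30 minutes at room temperature, then cAMP measured. Each analog's response expressed as percentage of that for parent PTHrP(1-28).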"}, "[7]": {"biological_target": "T3, hPTH1R (R0 form of the human PTH receptor) (Homo sapiens, UniProt Q03431)", "T3 construct": "expressed in transfected cells; host or cells: COS-7, transient (Fugene-6)", "test": "R0 memb: hPTH1R*PTH( 1-34)+GTPgS"}, "[8]": {"test": "Calcemic action in normal rats (blood ionized calcium)", "format": "in vivo", "outline": "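Corrected (pH 7.4) blood ionized calcium tracked from tail-vein samples before and 1, 2, 4 or 6 h after dosing. Peptides diluted in phosphate-citrate/NaCl/Tween 80 buffer, pH 5.0, given i.v. at 1 ml/kg to groups of six 8-week-old female SD-IGS rats; means ± SE versus vehicle.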"}, "[9]": {"biological_target": "T4, ROS 17/2.8 cells (endogenous rat PTHR) (Rattus norvegicus, UniProt P25961)", "T4 construct": "the rat osteoblastic cell line ROS17/2.8, which endogenously expresses the rat PTHR; endogenous in cells; host or cells: ROS 17/2.8 rat osteosarcoma cells (membranes or intact cells)", "T4 sequence (P25961 27-591)": "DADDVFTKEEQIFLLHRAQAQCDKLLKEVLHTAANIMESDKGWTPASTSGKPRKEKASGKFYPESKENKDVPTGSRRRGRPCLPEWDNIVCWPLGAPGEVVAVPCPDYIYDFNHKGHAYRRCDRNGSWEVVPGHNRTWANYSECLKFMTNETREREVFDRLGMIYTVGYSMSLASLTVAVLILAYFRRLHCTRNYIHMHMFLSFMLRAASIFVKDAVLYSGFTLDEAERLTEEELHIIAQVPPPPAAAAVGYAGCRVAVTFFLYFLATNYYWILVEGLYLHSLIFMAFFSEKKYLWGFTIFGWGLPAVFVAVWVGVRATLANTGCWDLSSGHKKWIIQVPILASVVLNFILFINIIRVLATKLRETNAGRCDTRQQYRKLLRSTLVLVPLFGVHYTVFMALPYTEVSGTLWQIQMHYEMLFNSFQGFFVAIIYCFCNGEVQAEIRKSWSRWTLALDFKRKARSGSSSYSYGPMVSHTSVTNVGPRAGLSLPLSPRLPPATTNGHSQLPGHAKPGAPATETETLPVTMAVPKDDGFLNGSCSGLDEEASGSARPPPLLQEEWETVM", "test": "Delayed cAMP response in ROS 17/2.8 cells", "format": "cell-based", "protocol": "The analogs used were [E^19],Mc-hPTH(1-34)OH (SEQ ID NO:21) and [A^23,E^19],Mc-hPTH(1-34)OH (SEQ ID NO:28) (Mc=Ala^1,3,12,Gln^10,Arg^11,Trp^14, Arg^19).\nThe data in FIG. 21B are expressed as a percent of the maximum response observed for each ligand, determined by incubating the cells with ligand in the presence of IBMX for 10 minutes (no ligand wash-out). These values were 67±6; 68±3; and 71±1 pmole/well, respectively. The basal (vehicle) cAMP value was 3.7±0.4 pmole/well.\nFollowing treatment of cells with a ligand, the intracellular cAMP levels were measured by radioimmuno assay, as described (Shimizu et al., J. Biol. Chem. 276:49003-49012 (2001)). The capacities of ligands to produce a delayed cAMP response in cells after a brief exposure to the ligand was assessed as follows. […]"}, "[10]": {"test": "Serum and urinary calcium and phosphate in TPTX rats", "format": "in vivo", "protocol": "Five-week-old male Crl:CD(SD) rats were obtained from Charles River Laboratories Japan, Inc. (Kanagawa, Japan) and acclimated for 1 week under standard laboratory conditions at 20-26° C. and 35-75% humidity. The rats received free access to tap water and standard rodent chow (CE-2) containing 1.1% calcium, 1.0% phosphate and 250 IU/100 g of vitamin D3 (Clea Japan, Inc., Shizuoka, Japan).\nThyroparathyroidectomy (TPTX) was performed on six-week-old rats. TPTX rats were selected for use based on serum ionized calcium (iCa) levels (<1.0 mM) in samples taken from tail vein bleeding at 24 hours or […] after the operation using the electrode method. The TPTX rats were divided into six groups of five animals based on iCa levels at 48 hours after the operation. TPTX-vehicle group intravenously received the vehicle alone (10 mM acetic acid solution) at a dose of 1 ml/kg body weight administered to the tail vein.\nBlood was obtained from the tail vein for detecting iCa at 1, 2, 4, 6, and 24 hours after each injection. Ionized calcium levels were determined by the electrode method using an autoanalyzer (M-634, Chiba Corning Diagnostics Co. Ltd., Tokyo, Japan).\nWe also studied the effects of the M-PTH(1-14)/PTHrP(15-36) hybrid peptide (SP-PTH) on serum and urinary calcium and phosphate."}, "[11]": {"biological_target": "hPTH1R (RG form of the human PTH receptor)", "test": "RG memb: hPTH1R+dnGS *M-PTH(1-15)"}}, "note": "Read-outs that look alike come from different tables or passages of the source. Peptide text beside a SMILES is read from it.", "data": [{"compound": "CC[C@H](C)[C@H](NC(=O)[C@H](CC(C)C)NC(=O)[C@H](CCCCN)NC(=O)[C@H](CC(C)C)NC(=O)[C@H](CC(C)C)NC(=O)[C@H](Cc1ccccc1)NC(=O)[C@H](C)NC(=O)[C@H](CCCNC(=N)N)NC(=O)[C@H](CCCNC(=N)N)NC(=O)[C@H](CCCNC(=N)N)NC(=O)[C@H](CCC(=O)O)NC(=O)[C@H](CC(=O)O)NC(=O)[C@H](CCC(N)=O)NC(=O)[C@@H](NC(=O)[C@H](CO)NC(=O)[C@H](CCCCN)NC(=O)CNC(=O)[C@H](CCCCN)NC(=O)[C@H](CC(=O)O)NC(=O)[C@H](Cc1c[nH]cn1)NC(=O)[C@H](CC(C)C)NC(=O)[C@H](CC(C)C)NC(=O)[C@H](CCC(N)=O)NC(=O)[C@H](Cc1c[nH]cn1)NC(=O)[C@H](CCC(=O)O)NC(=O)[C@H](CO)NC(=O)[C@@H](NC(=O)[C@H](C)N)C(C)C)[C@@H](C)CC)C(N)=O", "note": "[E18, A22, L25, K26-THrP(1-28)NH, E18,A22,L25,K26-PTHrP(1-28)] (H-AVSEHQLLHDKGKSIQDERRRAFLLKLI-NH2; N-terminus assumed)", "values": [{"measurement": "IC50", "setting": "[1]", "value": 0.1, "unit": "nM"}, {"measurement": "plasma cAMP 10 minutes after injection, in words", "setting": "[2]", "value": "Marked enhancements"}, {"measurement": "cAMP-inducing activity compared with parent, in words", "setting": "[3]", "value": "Marked enhancements of cAMP-inducing activity"}, {"measurement": "EC50", "setting": "[3]; Table 2, read-out: SaOS camp EC50", "value": 0.01, "unit": "nM"}, {"measurement": "EC50", "setting": "[3]; Table 3, read-out: dose-response cAMP in SaOS (EC50)", "value": 0.01, "unit": "nM"}, {"measurement": "EC50", "setting": "[4]", "value": 0.083, "unit": "nM"}, {"measurement": "R0/RG selectivity", "setting": "[5]; hPTHR", "value": 18317}, {"measurement": "IC50", "setting": "[5]; read-out: R^0 binding affinity hPTHR IC50", "value": 1740, "unit": "nM"}, {"measurement": "screen cAMP (% parent)", "setting": "[6]", "value": 340, "unit": "% parent"}]}, {"compound": "CC[C@H](C)[C@H](NC(=O)[C@H](CCC(=O)O)NC(=O)[C@H](C)NC(=O)[C@@H](NC(=O)[C@H](Cc1c[nH]cn1)NC(=O)[C@@H](NC(=O)[C@H](CCC(=O)O)NC(=O)[C@H](C)NC(=O)[C@@H](NC(=O)[C@H](CC(C)C)NC(=O)[C@H](Cc1c[nH]cn1)NC(=O)[C@H](Cc1c[nH]cn1)NC(=O)[C@H](CC(C)C)NC(=O)[C@H](Cc1ccccc1)NC(=O)[C@H](Cc1ccccc1)NC(=O)[C@H](CCCNC(=N)N)NC(=O)[C@H](CCCNC(=N)N)NC(=O)[C@H](CCCNC(=N)N)NC(=O)[C@H](CC(C)C)NC(=O)[C@H](CC(=O)O)NC(=O)[C@H](CCC(N)=O)NC(=O)[C@@H](NC(=O)[C@H](Cc1c[nH]c2ccccc12)NC(=O)[C@H](CCCCN)NC(=O)[C@H](C)NC(=O)[C@H](CCCNC(=N)N)NC(=O)[C@H](CCC(N)=O)NC(=O)[C@H](Cc1c[nH]cn1)NC(=O)[C@H](CCSC)NC(=O)[C@H](CC(C)C)NC(=O)[C@H](CCC(N)=O)NC(=O)[C@@H](NC(=O)[C@H](CCC(=O)O)NC(=O)[C@H](C)NC(=O)[C@@H](NC(=O)[C@H](C)N)C(C)C)[C@@H](C)CC)[C@@H](C)CC)[C@@H](C)CC)[C@@H](C)CC)[C@@H](C)O)C(=O)O", "note": "[Mc-PTH(1-14)/PTHrP(15-36)] (H-AVAEIQLMHQRAKWIQDLRRRFFLHHLIAEIHTAEI-OH)", "values": [{"measurement": "IC50", "setting": "[7]", "value": 2.7, "unit": "nM"}, {"measurement": "calcemic action compared with control peptides, in words", "setting": "[8]; normal and TPTX rats", "value": "higher calcemic actions than did PTH(1-34)"}, {"measurement": "calcemic action (blood ionized calcium), in words", "setting": "[8]; normal rats, i.v.", "value": "Prolonged calcemic effects"}, {"measurement": "duration of cAMP signaling, in words", "setting": "[9]", "value": "prolonged cAMP signaling"}, {"measurement": "duration of calcemic / sCa and sPi effect, in words", "setting": "[10]", "value": "prolonged calcemic effects"}, {"measurement": "duration of calcemic / sCa and sPi effect, in words", "setting": "[10]; listed as SP-PTH", "value": "maintained for 24 hrs"}, {"measurement": "serum calcium (sCa) and serum phosphorus (sPi), in words", "setting": "[10]; single i.v. 1.25 nmol/kg", "value": "increased sCa and decreased sPi to normal levels within 6 hrs"}, {"measurement": "urinary calcium 0-6 hours, in words", "setting": "[10]; single i.v. 1.25 nmol/kg", "value": "decreased urinary calcium"}, {"measurement": "urinary phosphate 0-6 hours, in words", "setting": "[10]; single i.v. 1.25 nmol/kg", "value": "increased urinary phosphate level"}, {"measurement": "IC50", "setting": "[11]", "value": 0.67, "unit": "nM"}]}]}
